Results taken from patent publication US9890147B2 (BAYER PHARMA AKTIENGESELLSCHAFT, priority 2012, dated 2018).

Experiments:
BRD4 (BD1) = biological target: T1, BRD4 (BD1) (Homo sapiens, UniProt O60885); assay: Binding assay BRD4/acetylated peptide H4 (TR-FRET protein-protein interaction assay)
T1 construct: with relatively long constructs also being possible, preferably amino acids 44-168; made in house; host or cells: E. coli
Procedure, shortened: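 His6-BRD4 BD1 (aa 67-152, E. coli), usually 10 nM, with biotinylated tetra-acetylated H4 peptide in HEPES pH 7.5 buffer; 11 compound concentrations 0.1 nM–20 μM in duplicate, 10 min preincubation, 1 h at 22 °C then ≥3 h at 4 °C. TR-FRET 665/620 ratio; IC50 by 4-parameter fit.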

MOLM-13 cells = assay: Cell proliferation assay (alamarBlue), MOLM-13; assay type: cell-based; conditions: Homo sapiens, 96 hours incubation, inhibition of cell proliferation
Procedure, shortened: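 Cells in RPMI1640/10% FCS read by alamarBlue fluorescence (ex 530, em 590 nm) after overnight 37 °C incubation, then treated at 1E-5 to 1E-8 M for 96 h. Pre-treatment values subtracted from endpoint values and compared with buffer-only wells; IC50 is 50% proliferation inhibition.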

Row | Structure (SMILES) | IC50 (BRD4 (BD1)) | IC50 (MOLM-13 cells)
1 | CNC(=O)N1N=C(c2ccc(Cl)cc2)c2cc(OCCCN3CCN(C)CC3)ccc2C[C@@H]1C [Example 164.2, (4S)-1-(4-chlorophenyl)-N,4-dimethyl-8-[3-(4-methylpiperazin-1-yl)propoxy]-4,5-dihydro-3H-2,3-benzodiazepine-3-carboxamide] | 0.06 µM | 0.42 µM
2 | CNC(=O)N1N=C(c2ccc(N3CCCC3=O)cc2)c2cc(OC)c(OC)cc2CC1C (racemic) [Example 39, (±)-7,8-dimethoxy-N,4-dimethyl-1-[4-(2-oxopyrrolidin-1-yl)phenyl]-4,5-dihydro-3H-2,3-benzodiazepine-3-carboxamide] | 0.08 µM | 0.7 µM
3 | CNC(=O)N1N=C(c2ccc(N3CCN(C)CC3)cc2)c2cc(Cl)c(OC(F)(F)F)cc2CC1C (racemic) [Example 213, (±)-8-chloro-N,4-dimethyl-1-[4-(4-methylpiperazin-1-yl)phenyl]-7-(trifluoromethoxy)-4,5-dihydro-3H-2,3-benzodiazepine-3-carboxamide] | 0.36 µM | 0.86 µM
4 | CNC(=O)N1N=C(c2ccc(N3CC(C)OCC3=O)cc2)c2cc(OC)c(OC)cc2CC1C (racemic) [Example 41, (±)-7,8-dimethoxy-N,4-dimethyl-1-[4-(2-methyl-5-oxomorpholin-4-yl)phenyl]-4,5-dihydro-3H-2,3-benzodiazepine-3-carboxamide] | 0.26 µM | 1.35 µM
5 | CNC(=O)N1N=C(c2ccc(-c3ccc(C(F)(F)F)nc3)cc2)c2cc(OC)c(OC)cc2C[C@@H]1C [Example 50.1, (4S)-7,8-dimethoxy-N,4-dimethyl-1-{4-[6-(trifluoromethyl)pyridin-3-yl]phenyl}-4,5-dihydro-3H-2,3-benzodiazepine-3-carboxamide] | 0.11 µM | 0.37 µM
6 | CNC(=O)N1N=C(c2ccc(N3C[C@@H](C)NC[C@@H]3C)cc2)c2cc(OC)c(OC)cc2CC1C (mixture of isomers) [Example 192, (±)-1-{4-[(2S,5R)-2,5-dimethylpiperazin-1-yl]phenyl}-7,8-dimethoxy-N,4-dimethyl-4,5-dihydro-3H-2,3-benzodiazepine-3-carboxamide] | 0.09 µM | 0.27 µM
7 | CNC(=O)N1N=C(c2ccc(-c3ccc(C(=O)NC4CC4)cc3)cc2)c2cc(OC)c(OC)cc2CC1C (racemic) [Example 83, (±)-1-[4′-(cyclopropylcarbamoyl)biphenyl-4-yl]-7,8-dimethoxy-N,4-dimethyl-4,5-dihydro-3H-2,3-benzodiazepine-3-carboxamide] | 0.03 µM | 0.45 µM
8 | CNC(=O)N1N=C(c2ccc(-c3ccc(C(F)(F)F)cc3)cc2)c2cc(OC)c(OC)cc2CC1C (racemic) [Example 86, (±)-7,8-dimethoxy-N,4-dimethyl-1-[4′-(trifluoromethyl)biphenyl-4-yl]-4,5-dihydro-3H-2,3-benzodiazepine-3-carboxamide] | 0.39 µM | 1.43 µM
9 | CNC(=O)N1N=C(c2ccc(Cl)cc2)c2cc(OCCN3CCN(C)CC3)ccc2CC1C (racemic) [Example 166, (±)-1-(4-chlorophenyl)-N,4-dimethyl-8-[2-(4-methylpiperazin-1-yl)ethoxy]-4,5-dihydro-3H-2,3-benzodiazepine-3-carboxamide] | 0.27 µM | 0.67 µM
10 | CNC(=O)N1N=C(c2ccc(N3CCS(=O)(=O)CC3)cc2)c2cc(N3CCS(=O)(=O)CC3)c(OC(F)(F)F)cc2CC1C (racemic) [Example 215, (±)-8-(1,1-dioxidothiomorpholin-4-yl)-1-[4-(1,1-dioxidothiomorpholin-4-yl)phenyl]-N,4-dimethyl-7-(trifluoromethoxy)-4,5-dihydro-3H-2,3-benzodiazepine-3-carboxamide] | 0.38 µM | 2.27 µM
11 | CNC(=O)N1N=C(c2ccc(-c3c(C)noc3C)cc2)c2cc(Cl)c(OC)cc2C[C@H]1C [Example 157.2, (4R)-8-chloro-1-[4-(3,5-dimethylisoxazol-4-yl)phenyl]-7-methoxy-N,4-dimethyl-4,5-dihydro-3H-2,3-benzodiazepine-3-carboxamide] | 0.47 µM | 2.19 µM
12 | CCC1Cc2cc(OC)c(OC)cc2C(c2ccc(-c3c(C)nn(C)c3C)cc2)=NN1C(=O)NC (racemic) [Example 220, (±)-4-ethyl-7,8-dimethoxy-N-methyl-1-[4-(1,3,5-trimethyl-1H-pyrazol-4-yl)phenyl]-4,5-dihydro-3H-2,3-benzodiazepine-3-carboxamide] | 0.49 µM | 2.4 µM
13 | CNC(=O)N1N=C(c2ccc(N3CCN(C)CC3)cc2)c2cc(OC)c(OC(F)F)cc2CC1C (racemic) [Example 163, (±)-7-(difluoromethoxy)-8-methoxy-N,4-dimethyl-1-[4-(4-methylpiperazin-1-yl)phenyl]-4,5-dihydro-3H-2,3-benzodiazepine-3-carboxamide] | 0.06 µM | 0.21 µM
14 | CNC(=O)N1N=C(c2ccc(N3CCC(N(C)C)CC3)cc2)c2cc(OC)c(OC)cc2CC1C (racemic) [Example 180, (±)-1-{4-[4-(dimethylamino)piperidin-1-yl]phenyl}-7,8-dimethoxy-N,4-dimethyl-4,5-dihydro-3H-2,3-benzodiazepine-3-carboxamide] | 0.07 µM | 0.37 µM
15 | CNC(=O)N1N=C(c2ccc(N3CCOCC3=O)cc2)c2cc(OC)ccc2C[C@@H]1C [Example 177, (4S)-8-Methoxy-N,4-dimethyl-1-[4-(3-oxomorpholin-4-yl)phenyl]-4,5-dihydro-3H-2,3-benzodiazepine-3-carboxamide] | 0.07 µM | 0.49 µM
16 | CNC(=O)N1N=C(c2ccc(-c3cccc(C(=O)N4CCOCC4)c3)cc2)c2cc(OC)c(OC)cc2CC1C (racemic) [Example 98, (±)-7,8-dimethoxy-N,4-dimethyl-1-[3′-(morpholin-4-ylcarbonyl)biphenyl-4-yl]-4,5-dihydro-3H-2,3-benzodiazepine-3-carboxamide] | 0.03 µM | 0.27 µM
17 | CNC(=O)N1N=C(c2ccc(-c3cncc(C#N)c3)cc2)c2cc(OC)c(OC)cc2CC1C (racemic) [Example 126, (±)-1-[4-(5-cyanopyridin-3-yl)phenyl]-7,8-dimethoxy-N,4-dimethyl-4,5-dihydro-3H-2,3-benzodiazepine-3-carboxamide] | 0.09 µM | 0.74 µM
18 | CNC(=O)N1N=C(c2ccc(-c3c(C)noc3C)cc2)c2cc(OC(F)F)c(OC(F)F)cc2CC1C (racemic) [Example 160, (±)-7,8-Bis(difluoromethoxy)-1-[4-(3,5-dimethylisoxazol-4-yl)phenyl]-N,4-dimethyl-4,5-dihydro-3H-2,3-benzodiazepine-3-carboxamide] | 0.26 µM | 0.4 µM
19 | CNC(=O)N1N=C(c2ccc(-c3c(C)noc3C)cc2)c2cc(N3CCOCC3)ccc2CC1C (racemic) [Example 176, (±)-1-[4-(3,5-Dimethylisoxazol-4-yl)phenyl]-N,4-dimethyl-8-(morpholin-4-yl)-4,5-dihydro-3H-2,3-benzodiazepine-3-carboxamide] | 0.04 µM | 0.52 µM

Continued, values first:

Row | IC50 (BRD4 (BD1)) | IC50 (MOLM-13 cells) | Structure (SMILES)
20 | 0.04 µM | 0.35 µM | CNC(=O)N1N=C(c2ccc(-c3cccnc3)cc2)c2cc(OC)c(OC)cc2CC1C (racemic) [Example 103, (±)-7,8-dimethoxy-N,4-dimethyl-1-[4-(pyridin-3-yl)phenyl]-4,5-dihydro-3H-2,3-benzodiazepine-3-carboxamide]
21 | 0.06 µM | 0.34 µM | CNC(=O)N1N=C(c2ccc(-c3ccncc3F)cc2)c2cc(OC)c(OC)cc2CC1C (racemic) [Example 84, (±)-1-[4-(3-fluoropyridin-4-yl)phenyl]-7,8-dimethoxy-N,4-dimethyl-4,5-dihydro-3H-2,3-benzodiazepine-3-carboxamide]
22 | 0.07 µM | 1.17 µM | CNC(=O)N1N=C(c2ccc(-c3ccccc3NS(C)(=O)=O)cc2)c2cc(OC)c(OC)cc2CC1C (racemic) [Example 68, (±)-7,8-dimethoxy-N,4-dimethyl-1-{2′-[(methylsulphonyl)amino]-biphenyl-4-yl}-4,5-dihydro-3H-2,3-benzodiazepine-3-carboxamide]
23 | 0.05 µM | 0.3 µM | CNC(=O)N1N=C(c2ccc(-c3cncc(C)c3)cc2)c2cc(OC)c(OC)cc2CC1C (racemic) [Example 81, (±)-7,8-dimethoxy-N,4-dimethyl-1-[4-(5-methylpyridin-3-yl)phenyl]-4,5-dihydro-3H-2,3-benzodiazepine-3-carboxamide]
24 | 0.07 µM | 1.16 µM | CNC(=O)N1N=C(c2ccc(-c3ccnc(OC)c3)cc2)c2cc(OC)c(OC)cc2CC1C (racemic) [Example 125, (±)-7,8-dimethoxy-1-[4-(2-methoxypyridin-4-yl)phenyl]-N,4-dimethyl-4,5-dihydro-3H-2,3-benzodiazepine-3-carboxamide]
25 | 0.04 µM | 0.49 µM | CNC(=O)N1N=C(c2ccc(-c3cccc(C(N)=O)c3)cc2)c2cc(OC)c(OC)cc2CC1C (racemic) [Example 77, (±)-1-(3′-carbamoylbiphenyl-4-yl)-7,8-dimethoxy-N,4-dimethyl-4,5-dihydro-3H-2,3-benzodiazepine-3-carboxamide]
26 | 0.05 µM | 1.16 µM | CNC(=O)N1N=C(c2ccc(-c3ccccc3C#N)cc2)c2cc(OC)c(OC)cc2CC1C (racemic) [Example 109, (±)-1-(2′-cyanobiphenyl-4-yl)-7,8-dimethoxy-N,4-dimethyl-4,5-dihydro-3H-2,3-benzodiazepine-3-carboxamide]
27 | 0.09 µM | 2.55 µM | CNC(=O)N1N=C(c2ccc(-c3ccc(C#N)cc3)cc2)c2cc(OC)c(OC)cc2CC1C (racemic) [Example 106, (±)-1-(4′-cyanobiphenyl-4-yl)-7,8-dimethoxy-N,4-dimethyl-4,5-dihydro-3H-2,3-benzodiazepine-3-carboxamide]
